Measured values published in US6986993B1, “System for cell-based screening” (Cellomics, Inc., priority 1999, dated 2006).
Like-named read-outs stand apart in the source and are kept apart here.

Key:
PC12 cells [1] = test: cells; settings: Rattus norvegicus, PC-12, read-out: IC50 (50% inhibitory concentration) for dopamine toxicity to neurites
PC12 cells [2] = settings: 3 hours, 8 wells
[3] = tested on: glioblastoma cell line (SNB-19); test: High-content screen of drug-induced apoptosis, SNB-19 cells; format: cell-based; settings: 26 h
Description: Cell preparation. The cells chosen for this study were mouse connective tissue fibroblasts (L-929; ATCC CCL-1) and a highly invasive glioblastoma cell line (SNB-19; ATCC CRL-2219) (Welch et al., In Vitro Cell. Dev. Biol. 31:610, 1995). The day before treatment with an apoptosis inducing drug, 3500 cells were placed into each well of a 96-well plate and incubated overnight at 37° C. in a humidified 5% CO2 atmosphere. The following day, the culture medium was removed from each well and replaced with fresh medium containing various concentrations of paclitaxel (0–50 μM) from a 20 mM stock made in DMSO. The maximal concentration of DMSO used in these experiments was 0.25%. The cells were then incubated for 26 h as above. […]
(§1) Image acquisition and analysis on the ArrayScan System. The fluorescence intensity of intracellular MITOTRACKER® Red, Hoechst 33342, and BODIPY® FL phallacidin was measured with the cell screening system as described supra. […]
Calculations and output. A total of 50–250 cells were measured per image field. For each field of cells, the following calculations were performed: (1) The average nuclear area (μm^2) was calculated by dividing the total nuclear area in a field by the number of nuclei detected. (2) The average nuclear perimeter (μm) was calculated by dividing the sum of the perimeters of all nuclei in a field by the number of nuclei detected in that field. […]

[4] = tested on: mouse connective tissue fibroblasts (L-929); test: High-content screen of drug-induced apoptosis, L-929 cells; format: cell-based
Description: Cell preparation. The cells chosen for this study were mouse connective tissue fibroblasts (L-929; ATCC CCL-1) and a highly invasive glioblastoma cell line (SNB-19; ATCC CRL-2219) (Welch et al., In Vitro Cell. Dev. Biol. 31:610, 1995). The day before treatment with an apoptosis inducing drug, 3500 cells were placed into each well of a 96-well plate and incubated overnight at 37° C. in a humidified 5% CO2 atmosphere. The following day, the culture medium was removed from each well and replaced with fresh medium containing various concentrations of paclitaxel (0–50 μM) from a 20 mM stock made in DMSO. The maximal concentration of DMSO used in these experiments was 0.25%. The cells were then incubated for 26 h as above. At the end of the paclitaxel treatment period, each well received fresh medium containing 750 nM MITOTRACKER® Red (Molecular Probes; Eugene, Oreg.) and 3 μg/ml Hoechst 33342 DNA-binding dye (Molecular Probes) and was incubated as above for 20 min. Each well on the plate was then washed with HBSS and fixed with 3.7% formaldehyde in HBSS for 15 min at room temperature. The formaldehyde was washed out with HBSS and the cells were permeabilized for 90 s with 0.5% (v/v) Triton X-100, washed with HBSS, incubated with 2 U ml^−1 BODIPY® FL phallacidin (Molecular Probes) for 30 min, and washed with HBSS. The wells on the plate were then filled with 200 μl HBSS, sealed, and the plate stored at 4° C. if Go necessary.
as §1
Calculations and output. A total of 50–250 cells were measured per image field. For each field of cells, the following calculations were performed: (1) The average nuclear area (μm^2) was calculated by dividing the total nuclear area in a field by the number of nuclei detected. (2) The average nuclear perimeter (μm) was calculated by dividing the sum of the perimeters of all nuclei in a field by the number of nuclei detected in that field. […] (3) The average nuclear brightness was calculated by dividing the integrated intensity of the entire field of nuclei by the number of nuclei in that field. […] (4) The average cellular brightness was calculated by dividing the integrated intensity of an entire field of cells stained with MITOTRACKER® dye by the number of nuclei in that field. […] (5) The average cellular brightness was also calculated by dividing the integrated intensity of an entire field of cells stained with BODIPY® FL phallacidin dye by the number of nuclei in that field. […]

[5] = tested on: NF-KB transcription factor; test: NF-KB cytoplasm to nucleus translocation screen (NucCyt Difference); format: cell-based; settings: human cell line, wells titrated with IL-1; FIG. 16
Description: The distribution of the transcription factor is determined by labeling the nuclei with a DNA specific fluorophore like […] and the transcription factor with a specific fluorescent antibody. After autofocusing on the Hoechst labeled nuclei, an image of the nuclei is acquired in the cell-based screening system and used to create a mask by one of several optional thresholding methods, as described supra. The morphological descriptors of the regions defined by the mask are compared with the user defined parameters and valid nuclear masks are identified and used with the following method to extract transcription factor distributions. Each valid nuclear mask is eroded to define a slightly smaller nuclear region. The original nuclear mask is then dilated in two steps to define a ring shaped region around the nucleus, which represents a cytoplasmic region. The average antibody fluorescence in each of these two regions is determined, and the difference between these averages is defined as the NucCyt Difference. […] Using these two sampling regions, data on nuclear translocation can be automatically analyzed by the cell-based screening system on a cell by cell basis. […]

NCCc1ccc(O)c(O)c1 [dopamine]
IC50 (PC12 cells [1]): 460 µM
Neurite Outgrowth Index (mean +/− standard deviation) (PC12 cells [2]; dopamine 0.05 mM): 43 +/− 4%
Neurite Outgrowth Index (mean +/− standard deviation) (PC12 cells [2]; dopamine 0.1 mM): 37 +/− 3%
Neurite Outgrowth Index (mean +/− standard deviation) (PC12 cells [2]; dopamine 0.2 mM): 37 +/− 3%
Neurite Outgrowth Index (mean +/− standard deviation) (PC12 cells [2]; dopamine 0.4 mM): 25 +/− 3%
Neurite Outgrowth Index (mean +/− standard deviation) (PC12 cells [2]; dopamine 0.8 mM): 17 +/− 2%
Neurite Outgrowth Index (mean +/− standard deviation) (PC12 cells [2]; dopamine 1.6 mM): 11 +/− 2%

CC(=O)O[C@H]1C(=O)[C@@]2(C)[C@H]([C@H](OC(=O)c3ccccc3)[C@]3(O)C[C@H](OC(=O)[C@H](O)[C@@H](NC(=O)c4ccccc4)c4ccccc4)C(C)=C1C3(C)C)[C@]1(OC(C)=O)CO[C@@H]1C[C@@H]2O [paclitaxel]
Concentration at which area, brightness and fragmentation of the nucleus and actin polymerization reached a maximum value [3]: 10 nM
Concentration at which mitochondrial potential was minimal [3]: 10 nM
Concentration giving maximal response in many parameters ([4]; L-929 cells, 26 h): 5 µM
Mitochondrial potential ([4]; L-929 cells, all concentrations tested (0–50 μM)): did not show a sharp decrease in mitochondrial potential
Nuclear morphology ([4]; L-929 cells, increasing amounts, 26 h, FIG. 24): caused nuclei to enlarge and fragment
Dose for maximal response in L-929 relative to SNB-19 cells ([4]; L-929 versus SNB-19): 500 fold

B1: IL-1: a known inducer of the NF-KB transcription factor (protein, UniProt P01583 113-271, looked up)
Interleukin-1 alpha: SAPFSFLSNVKYNFMRIIKYEFILNDALNQSIIRANDQYLTAAALHNLDEAVKFDMGAYKSSKDDAKITVILRISKTQLYVTAQDEDQPVLLKEMPEIPKTITGSETNLLFFWETHGTKNYFTSVAHPNLFIATKQDYWVCLAGGPPSITDFQILENQA
NucCyt Difference (NF-KB nuclear translocation) versus amount of agonist [5]: strongly correlated with the amount of agonist added to the wells
